These results are taken from ChEMBL document CHEMBL1201862, “PubChem BioAssay data set” (2004).

Activity calls are given as the source filed them. Bounds are passed on as bounds.

The test system of one assay is HEK293. As to the kind of experiment: cells. The assay is classed as functional, cell-based. Conditions: Homo sapiens.
Assay [1] concerns the target Nuclear receptor subfamily 0 group B member 1 (Homo sapiens, UniProt P51843). As to the kind of experiment: Luminescence-based cell-based high throughput dose response assay for inhibitors of the orphan nuclear receptor subfamily 0, group B, member 1 (DAX1; NR0B1). [Related pubchem assays (depositor defined):AID504766, AID504790]. The assay is classed as functional.

Assay [2] has as its target T1, High affinity choline transporter 1 (Homo sapiens, UniProt Q9GZV3).
T1 sequence (Q9GZV3 whole entry): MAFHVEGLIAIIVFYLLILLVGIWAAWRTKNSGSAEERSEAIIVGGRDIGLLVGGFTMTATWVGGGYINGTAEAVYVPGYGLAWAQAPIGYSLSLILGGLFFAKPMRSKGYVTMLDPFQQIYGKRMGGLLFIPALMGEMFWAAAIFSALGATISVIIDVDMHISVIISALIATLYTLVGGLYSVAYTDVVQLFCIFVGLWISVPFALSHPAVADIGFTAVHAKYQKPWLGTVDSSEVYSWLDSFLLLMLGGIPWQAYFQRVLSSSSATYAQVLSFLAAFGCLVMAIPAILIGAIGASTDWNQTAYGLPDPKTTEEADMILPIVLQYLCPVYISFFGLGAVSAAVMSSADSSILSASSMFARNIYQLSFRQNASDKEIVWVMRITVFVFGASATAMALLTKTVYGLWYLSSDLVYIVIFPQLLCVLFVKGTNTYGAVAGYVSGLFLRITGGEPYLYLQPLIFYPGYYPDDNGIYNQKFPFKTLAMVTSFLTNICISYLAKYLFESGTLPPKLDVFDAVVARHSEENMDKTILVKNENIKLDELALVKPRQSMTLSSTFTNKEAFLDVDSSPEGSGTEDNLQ
Kind of assay: human choline transporter potentiators, potency – cell-based, 10-point CRC, membrane potential dye, dose response (AID 602376). In kind it is functional.

For the next assay, the target named is Aurora kinase B (Homo sapiens, UniProt Q96GD4). The assay is classed as functional.
Sequence of Aurora kinase B (Q96GD4 whole entry): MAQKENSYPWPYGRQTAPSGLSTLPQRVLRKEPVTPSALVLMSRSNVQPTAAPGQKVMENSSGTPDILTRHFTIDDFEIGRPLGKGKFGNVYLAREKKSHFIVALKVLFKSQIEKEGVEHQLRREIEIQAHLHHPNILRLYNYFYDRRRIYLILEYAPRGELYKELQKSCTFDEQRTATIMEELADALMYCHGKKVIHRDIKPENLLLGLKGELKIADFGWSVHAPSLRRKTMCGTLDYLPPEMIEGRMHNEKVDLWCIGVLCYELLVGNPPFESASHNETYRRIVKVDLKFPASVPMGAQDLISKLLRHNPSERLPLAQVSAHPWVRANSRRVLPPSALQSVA
A further assay addresses Focal adhesion kinase 1 (Homo sapiens, UniProt Q05397). The assay is classed as functional.
Assay [3] has as its target ALK tyrosine kinase receptor (Homo sapiens, UniProt Q9UM73). In kind it is functional.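 Further: ALK tested as one member of a kinase panel screen.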
In a further assay the target is Aurora kinase A (Homo sapiens, UniProt O14965). The assay is classed as functional.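 Further: value from the Navigating the Kinome kinase panel profiling, panel entry STK6.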
Sequence of Aurora kinase A (O14965 whole entry): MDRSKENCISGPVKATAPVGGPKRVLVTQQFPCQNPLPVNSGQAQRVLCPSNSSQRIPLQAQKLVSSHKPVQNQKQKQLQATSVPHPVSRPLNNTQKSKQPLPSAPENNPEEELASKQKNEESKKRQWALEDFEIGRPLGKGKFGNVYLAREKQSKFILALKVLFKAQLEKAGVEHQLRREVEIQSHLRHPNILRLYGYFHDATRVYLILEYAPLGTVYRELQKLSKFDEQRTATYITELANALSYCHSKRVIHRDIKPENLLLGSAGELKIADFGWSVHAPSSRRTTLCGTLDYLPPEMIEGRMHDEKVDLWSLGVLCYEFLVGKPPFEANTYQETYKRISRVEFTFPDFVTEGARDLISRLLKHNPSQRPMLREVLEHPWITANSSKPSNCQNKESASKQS
The target in assay [4] is DNA dC->dU-editing enzyme APOBEC-3A (Homo sapiens, UniProt P31941). As to the kind of experiment: SAR analysis of small molecule inhibitors of APOBEC3A DNA Deaminase via a fluorescence-based single-stranded DNA deaminase assay - Set 2. In kind it is functional. The note with it: read-out: IC50_Mean.
Sequence of DNA dC->dU-editing enzyme APOBEC-3A (P31941 whole entry): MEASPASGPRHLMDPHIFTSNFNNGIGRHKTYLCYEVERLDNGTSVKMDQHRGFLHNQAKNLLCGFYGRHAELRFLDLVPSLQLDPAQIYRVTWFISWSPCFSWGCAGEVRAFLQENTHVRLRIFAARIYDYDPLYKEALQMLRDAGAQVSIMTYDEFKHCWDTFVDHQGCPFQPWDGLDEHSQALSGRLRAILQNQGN
The target in assay [5] is DNA dC->dU-editing enzyme APOBEC-3G (Homo sapiens, UniProt Q9HC16). Kind of assay: SAR analysis of small molecule inhibitors of APOBEC3G DNA Deaminase via a fluorescence-based single-stranded DNA deaminase assay - Set 2. In kind it is functional. The note with it: read-out: IC50_Mean.
Sequence of DNA dC->dU-editing enzyme APOBEC-3G (Q9HC16 whole entry): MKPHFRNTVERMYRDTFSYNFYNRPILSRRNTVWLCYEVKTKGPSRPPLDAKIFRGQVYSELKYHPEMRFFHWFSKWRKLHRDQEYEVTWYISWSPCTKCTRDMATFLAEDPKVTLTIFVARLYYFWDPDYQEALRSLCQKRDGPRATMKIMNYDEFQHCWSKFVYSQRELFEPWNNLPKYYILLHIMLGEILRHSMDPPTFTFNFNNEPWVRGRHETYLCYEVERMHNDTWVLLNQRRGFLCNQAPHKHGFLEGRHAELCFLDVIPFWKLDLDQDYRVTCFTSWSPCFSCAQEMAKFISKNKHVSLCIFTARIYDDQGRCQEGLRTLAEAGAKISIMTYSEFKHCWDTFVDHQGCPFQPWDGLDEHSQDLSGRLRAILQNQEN
In assay [6] the target is Serine/threonine-protein phosphatase (Candida dubliniensis (strain CD36 / CBS 7987 / NCPF 3949 / NRRLY-17841) (Yeast), UniProt B9W6M3). Kind of assay: blockers of CaCl2-induced CDRE-lacZ signaling – S. cerevisiae, luminescence, secondary, dose response (AID 2388).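 Further: yeast reporter cells carrying a calcineurin-responsive lacZ construct stimulated with calcium chloride; luminescent beta-galactosidase reporter signal in whole cells rather than isolated phosphatase activity; potency for inhibition where a drop in reporter signal means calcineurin blockade.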 In kind it is functional, cell-based.
Sequence of Serine/threonine-protein phosphatase (B9W6M3 whole entry): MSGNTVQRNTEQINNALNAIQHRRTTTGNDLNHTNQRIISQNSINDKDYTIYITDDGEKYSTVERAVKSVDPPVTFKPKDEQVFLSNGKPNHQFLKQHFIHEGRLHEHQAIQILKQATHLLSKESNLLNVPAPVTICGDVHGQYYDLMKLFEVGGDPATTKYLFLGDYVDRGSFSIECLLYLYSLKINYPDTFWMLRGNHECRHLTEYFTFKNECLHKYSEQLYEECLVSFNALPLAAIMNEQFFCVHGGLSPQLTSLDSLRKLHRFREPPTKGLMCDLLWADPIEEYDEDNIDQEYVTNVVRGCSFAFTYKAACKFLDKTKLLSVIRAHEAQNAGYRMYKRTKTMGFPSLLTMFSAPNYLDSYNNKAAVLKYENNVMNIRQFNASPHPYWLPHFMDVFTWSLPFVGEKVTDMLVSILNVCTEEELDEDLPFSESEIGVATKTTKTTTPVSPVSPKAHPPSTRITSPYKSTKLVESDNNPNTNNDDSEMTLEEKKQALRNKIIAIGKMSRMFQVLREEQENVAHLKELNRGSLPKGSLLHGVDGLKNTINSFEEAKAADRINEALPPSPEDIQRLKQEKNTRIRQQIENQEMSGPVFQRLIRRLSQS
For assay [7], the target named is ATP-dependent molecular chaperone HSP82 (Candida albicans (strain WO-1) (Yeast), UniProt C4YTQ8). As to the kind of experiment: steroid-induced GRE reporter decrease in yeast – S. cerevisiae, luminescence, Hsp90 inhibitor project, dose response (AID 2400).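 Further: beta-galactosidase luminescence from glucocorticoid response element reporter as proxy for Hsp90 function; inhibitor potency where signal loss means Hsp90 inhibition.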 The assay is classed as functional, cell-based.
Sequence of ATP-dependent molecular chaperone HSP82 (C4YTQ8 whole entry): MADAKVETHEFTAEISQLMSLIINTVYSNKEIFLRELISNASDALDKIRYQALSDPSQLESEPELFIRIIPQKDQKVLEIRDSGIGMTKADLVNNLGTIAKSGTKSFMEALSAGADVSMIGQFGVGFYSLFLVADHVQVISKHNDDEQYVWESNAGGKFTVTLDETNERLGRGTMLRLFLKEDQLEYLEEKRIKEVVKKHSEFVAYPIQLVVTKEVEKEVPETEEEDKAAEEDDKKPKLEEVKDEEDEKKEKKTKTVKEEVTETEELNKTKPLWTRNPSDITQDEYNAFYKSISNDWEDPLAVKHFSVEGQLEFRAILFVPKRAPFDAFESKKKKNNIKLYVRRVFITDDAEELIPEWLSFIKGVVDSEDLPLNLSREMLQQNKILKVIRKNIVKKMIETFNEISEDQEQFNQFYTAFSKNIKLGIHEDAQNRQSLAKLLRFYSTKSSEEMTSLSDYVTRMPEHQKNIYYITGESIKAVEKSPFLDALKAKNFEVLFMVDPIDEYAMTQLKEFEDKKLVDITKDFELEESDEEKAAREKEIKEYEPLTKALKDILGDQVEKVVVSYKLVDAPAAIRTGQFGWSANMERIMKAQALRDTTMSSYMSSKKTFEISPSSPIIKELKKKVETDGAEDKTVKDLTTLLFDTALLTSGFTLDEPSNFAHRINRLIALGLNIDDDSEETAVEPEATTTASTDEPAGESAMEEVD
Assay [8] can be described thus: luciferase reporter signal suppression in cells – H4 neuroglioma cells, luminescence, dose response (AID 1990). In kind it is functional, cell-based.
A short description of assay [9]: Luminescence Cell-Based Dose Response HTS to Identify Inhibitors of 5'UTR Stem-Loop Driven Prion Protein mRNA Translation in H4 Neuroglioblastoma Cells. [Related pubchem assays: 1827 (Project Summary), 1813 (Primary HTS)]. The assay is classed as functional.
Assay [10] can be described thus: fluconazole-exposed Candida albicans growth modulators – fluorescence, retest, confirmation (AID 2467). The assay is classed as functional, cell-based.
In the next assay the test system is INS1. As to the kind of experiment: INS-1E survival protection against cytokine death – cell-based, luminescence, retest, dose response (AID 449756).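 Further: cell death triggered by IL-1 beta plus TNF-alpha plus IFN-gamma mixture; protective hits raise ATP signal compared with cytokine alone wells.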 In kind it is functional. Conditions: Rattus norvegicus.
Assay [11] can be described thus: alpha-synuclein stem-loop luciferase translation blockers – H4 neuroglioma cells, luminescence, confirmation (AID 1988). The assay is classed as functional, cell-based.
Assay [12] in a line: NIH-3T3 fibroblast cytotoxicity, dose response, cytotoxicity control, cell-based, fluorescence, Alamar Blue, secondary assay (AID 2327).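 Further: NIH-3T3 mouse fibroblasts cultured with fluconazole at 8 µg/mL.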 In kind it is functional.

Sequence of Nuclear receptor subfamily 0 group B member 1 (P51843 whole entry): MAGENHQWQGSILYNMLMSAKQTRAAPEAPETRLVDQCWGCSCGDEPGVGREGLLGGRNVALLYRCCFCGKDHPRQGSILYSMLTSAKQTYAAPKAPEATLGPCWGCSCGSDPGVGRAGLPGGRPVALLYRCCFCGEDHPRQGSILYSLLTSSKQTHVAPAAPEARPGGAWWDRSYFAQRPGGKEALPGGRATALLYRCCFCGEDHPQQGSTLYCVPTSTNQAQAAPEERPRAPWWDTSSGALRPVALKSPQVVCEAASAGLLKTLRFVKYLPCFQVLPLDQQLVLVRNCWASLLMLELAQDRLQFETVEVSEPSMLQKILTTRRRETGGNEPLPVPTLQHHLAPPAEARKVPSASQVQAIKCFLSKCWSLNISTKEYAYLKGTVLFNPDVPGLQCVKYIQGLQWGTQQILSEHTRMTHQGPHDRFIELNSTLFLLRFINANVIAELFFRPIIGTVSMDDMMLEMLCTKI
Sequence of Focal adhesion kinase 1 (Q05397 whole entry): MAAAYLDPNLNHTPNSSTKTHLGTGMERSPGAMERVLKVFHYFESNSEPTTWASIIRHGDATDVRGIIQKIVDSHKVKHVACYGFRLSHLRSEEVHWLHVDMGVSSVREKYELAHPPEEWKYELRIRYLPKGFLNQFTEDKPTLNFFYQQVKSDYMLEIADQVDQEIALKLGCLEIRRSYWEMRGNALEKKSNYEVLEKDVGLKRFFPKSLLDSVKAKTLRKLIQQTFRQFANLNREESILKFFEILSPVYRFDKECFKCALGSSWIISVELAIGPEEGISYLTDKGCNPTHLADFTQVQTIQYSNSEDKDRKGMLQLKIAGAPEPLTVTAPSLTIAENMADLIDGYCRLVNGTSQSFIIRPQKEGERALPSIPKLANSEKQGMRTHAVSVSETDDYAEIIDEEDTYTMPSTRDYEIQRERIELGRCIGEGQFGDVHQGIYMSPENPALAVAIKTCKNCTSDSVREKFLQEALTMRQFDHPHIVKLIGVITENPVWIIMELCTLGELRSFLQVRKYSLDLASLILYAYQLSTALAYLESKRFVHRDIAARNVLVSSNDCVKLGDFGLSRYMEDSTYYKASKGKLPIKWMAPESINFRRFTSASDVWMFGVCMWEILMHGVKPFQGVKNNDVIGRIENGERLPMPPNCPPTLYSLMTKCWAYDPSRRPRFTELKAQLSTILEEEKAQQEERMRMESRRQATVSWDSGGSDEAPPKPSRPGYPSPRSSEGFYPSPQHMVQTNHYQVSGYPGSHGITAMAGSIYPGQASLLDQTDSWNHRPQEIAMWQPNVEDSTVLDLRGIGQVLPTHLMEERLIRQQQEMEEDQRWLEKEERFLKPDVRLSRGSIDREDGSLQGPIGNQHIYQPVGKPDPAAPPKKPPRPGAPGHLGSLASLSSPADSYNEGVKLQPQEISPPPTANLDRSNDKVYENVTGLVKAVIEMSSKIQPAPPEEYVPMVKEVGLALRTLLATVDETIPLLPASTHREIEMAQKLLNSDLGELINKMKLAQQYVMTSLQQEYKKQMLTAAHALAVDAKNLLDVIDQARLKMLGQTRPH

As for `CCCCNC(=O)Nc1nc2ccccc2s1`, the IC50 (in the assay with HEK293; in assay [1]) was > 67.5 µM (inactive) throughout.

With `O=C(c1cccc(C(F)(F)F)c1)C1CCCN(Cc2cccn2-c2ncccn2)C1` (configuration not stated), the EC50 in assay [2] was 6.69 µM (active).

Regarding `Cc1cc(N2CCOCC2)cc2[nH]c(-c3c(NCC(O)c4ccccc4)cc[nH]c3=O)nc12` (configuration not stated), the Ki on Aurora kinase B is 0.0501 µM (active); at Focal adhesion kinase 1, 0.0316 µM (active); in assay [3] it was 0.0794 µM (active); at Aurora kinase A, 0.251 µM (active).

With `Cc1ccc(-c2csc3nnc(SCCOc4ccccc4)n23)cc1`, the IC50 in assay [4] and in assay [5] was > 99 µM (inactive) each time.

As to `C/C(=N\NC(=O)c1cc(C2CC2)nc2ccccc12)c1ccc(O)cc1O`, the EC50 in assay [6] is > 180 µM (inactive); in assay [7], > 160 µM (inactive); in assay [8], 11.7 µM (active); in assay [9], 11.4 µM (active); in [10], 2.46 µM (active); in assay [11], 5.57 µM (inconclusive). Further, the EC50 in assay [12] was 12.9 µM (inconclusive). Also, the AC50 with INS1 was 1.01 µM (active).
